Test results from article PMC3570346, “PET imaging of brain inflammation during early epileptogenesis in a rat model of temporal lobe epilepsy” (EJNMMI Research, 2012).

What was measured:
[1] = target: T1, Translocator protein (TSPO) (Rattus norvegicus, UniProt P16257); assay: In vivo [^18F]-PBR111 PET imaging, Vt by two-compartment model with metabolite-corrected plasma input; parameters: Tissue distribution volume (Vt): unit not given here
T1 construct: from tissue; host or cells: brain of living male Wistar rats (control and kainic acid-induced status epilepticus)
Excerpt: Seven days post-SE, rats were anaesthetised for PET imaging using isoflurane (induction 5%, maintenance 1% to 3%, in medical oxygen), and body temperature was maintained using a feedback-regulated heating pad. A catheter was implanted in the femoral artery as described above. The animal was then placed into the field-of-view of the INVEON PET/CT scanner (Siemens Medical Solutions, Knoxville, TN, USA), and physiological parameters (heart rate, respiration and body temperature) were monitored (BioVet, m2m Imaging Corp., Cleveland, OH, USA) for the entire scanning period. To avoid movement and fix tubing, the animal was restrained in the supine position using a webbed sock and adhesive tape.
The PET scan was started 20 to 30 s before the 1-min infusion of radiotracer (ID = 12.5 to 29.0 MBq, 0.05 to 0.29 nmol, max 0.4 ml in volume, as described above) for the duration of 60 min. Femoral arterial blood samples (approximately 50 μl/sample) were taken at 15-s intervals for 4 min after the commencement of the PET scan, and then at 10-, 20-, 30- and 50-min post-injections. In the last sample (100 μl), metabolites were analysed to confirm the standard metabolite correction and to calculate the partition coefficient at 50 min. Heparinised saline (20 IU) was administered after blood sampling to maintain the blood volume and to prevent hypotension. Plasma samples were collected after 10-min centrifugation of whole blood at 3,000 rpm. Whole blood and plasma samples were counted in a Wallac γ-counter, decay-corrected and weight-normalised. At the end of the PET scanning, a 10-min 70 kV/500 μA computed tomography (CT) scan was performed on each animal (for co-registration with PET data and magnetic resonance imaging (MRI) atlas).
Coincidence events were acquired into list mode files and then histogrammed into […] consecutive frames of variable duration (8 × 15 s, 6 × 20 s, 6 × 60 s, 3 × 180 s, and 5 × 500 s). The volumes were then reconstructed with an iterative algorithm 3D-OSEM/FastMap. PET images (128 × 128 × 159) were co-registered with CT scans and mapped to a MRI-based rat brain atlas. Left and right time activity curves (TACs) were derived from eight VOIs such as the frontal cortex, striatum, parietal cortex, hippocampus, thalamus, amygdala, occipital cortex and colliculi using the Anatomist package ( http://brainvisa.info). Also, the hypothalamus, brainstem, pons and cerebellum were extracted from the reconstructed images. Data were then converted into activity concentration (kBq/ml) using cross calibration factors.
Firstly, a two-compartment model was used to assess the ‘apparent’ volume of distribution (Vt), or the ‘volume’ of the tracer would occupy if the tracers were to adopt the same concentration in the tissue as in the blood. For each VOI, Vt was calculated using their TACs, the metabolite-corrected plasma curve as input function and the whole blood curve to model the kinetics of the vascular fraction (5%) in the cerebral tissue.

[2] = [^18F]-PBR111 metabolite analysis in plasma (solid phase extraction); type: in vivo, rat; conditions: 50-min post-injection
Excerpt: To establish a standard curve of [^18F]-PBR111 metabolism, blood samples were obtained in four control rats (304 ± 10 g) and six KASE rats (312 ± 8 g, minor to medium SE), which were maintained under anaesthesia to mimic the conditions of the PET scan (Table 1). Animals were anaesthetised with 5% isoflurane for induction and 1% to 3% for maintenance, administered in medical oxygen. An incision was made in the inner thigh of the hind leg, and the femoral artery was exposed and loosely tied off after blunt dissection of the surrounding tissue. A polyethylene cannula filled with heparinised saline (20 IU/ml) was placed into the femoral artery and threaded 3 cm proximally.
Animals were injected intravenously with [^18F]-PBR111 (injected dose (ID) = 14.1 to 38.7 MBq). […] The line was flushed with saline, and the remaining radioactivity was measured in the line and syringe. […] Plasma samples (0.1 ml) were weighed and the radioactivity was measured in a Wallac γ-counter. […]
SPE analysis was performed on Oasis cartridges (Waters Oasis® HLB, 30 μm, 60 mg) that were preconditioned with 1 ml ethanol followed by 5 ml water. […] The radioactivity in each fraction and that remaining on the cartridge was measured with a Wallac γ-counter. Data were expressed as the percentage of unmetabolised parent compound (^18F]-PBR111) in the plasma sample. […]

[3] = Stability of [^18F]-PBR111 in whole rat blood (1 h on the bench); type: in vitro ADME; conditions: samples from 2- and 5-min post-injection left on the bench for 1 h vs processed immediately
Procedure: Animals were injected intravenously with [^18F]-PBR111 (injected dose (ID) = 14.1 to 38.7 MBq). The tracer was infused via the dorsal penile vein (maximum volume of 0.3 ml) using a Harvard Apparatus Pump 11 plus syringe pump (Holliston, MA, USA) over a constant time interval of 1 min. The line was flushed with saline, and the remaining radioactivity was measured in the line and syringe. Different ranges of tracer mass (0.07 to 4.00 nmol) were injected to evaluate whether this would affect the tracer metabolism. Arterial blood samples (0.2 ml) were withdrawn via a cannula implanted in the femoral artery from 2 to 60 min after the start of injection. The whole blood was then centrifuged at 3,000 rpm for 10 min, and the plasma was collected. Plasma samples (0.1 ml) were weighed and the radioactivity was measured in a Wallac γ-counter. At 2- and 5-min post-injections, the samples were taken in duplicate. One sample was left on the bench for 1 h, and the other was processed immediately to evaluate the stability in whole rat blood.

TSPO = target: T2, TSPO (Rattus norvegicus, UniProt P16257); assay: In vitro [^125I]-CLINDE autoradiography on coronal brain sections (post-mortem); type: binding
T2 construct: from tissue; host or cells: coronal cryostat sections (20 μm) of frozen rat brain, control and KASE animals
Procedure: TSPO binding density was assessed using the selective TSPO ligands, ^125I]-CLINDE and ^18 F]-PBR111 as described previously. Briefly, adjacent sets of unfixed […] sections were incubated in triplicate with 3 nM ^125I]-CLINDE or 4 nM ^18F]-PBR111 in 50 mM Tris buffer (pH 7.4 at 4°C) for 1 h. Non-specific binding was assessed with co-incubation with 10 μM PK11195 (Sigma-Aldrich). Sections were washed in ice cold Tris buffer (2 × 2 min), then distilled water (1 min), before being air dried on a slide warmer at 37°C. They were exposed to film, with ^14C] polymer standards (ARC, USA) for calibration of optical density to becquerel per milligram activity. Films were scanned using a BioRad GS-800 calibrated densitometer (Bio-Rad Laboratories, Hercules, CA, USA), and exposure times were chosen such that the optical density range of the sections was within the pseudolinear response range of the film.
Autoradiographic images were calibrated (cubic fit between optical density and [^14C]-standard values) and quantified using ImageJ ( http://rsbweb.nih.gov/ij/). […] Regions of interest were drawn blinded for control and KASE groups, converted to kilobecquerel per milligram and specific binding calculated.
Coronal brain sections (20 μm, −3.24 mm from bregma according to [21]) were cut using a cryostat, thaw-mounted onto Polysine® microscope slides (LabServ, Australia), and stored at −80°C. During cutting, pictures were taken in EB-injected animals to evaluate extravasation macroscopically. Adjacent sets of unfixed rat brain sections were analysed in triplicate for quantitative autoradiography for TSPO with ^125I]-CLINDE, OX-42 (microglial activation) immunohistochemistry and cresyl violet (cell loss).
Methodology regarding immunohistochemistry was performed as above. Semi-quantitative analysis included visual scoring of OX-42 signal as follows: mild (+), moderate (++) and intense (+++) OX-42 signals. For autoradiography, a preincubation step of 15 min in Tris buffer (50 mM, pH 7.4) was added to remove exogenous TSPO ligand. TSPO binding was assessed as described above in the cortex, corpus callosum, hippocampus and hippocampal subregions (CA1, CA2 and CA3/hilus), thalamus, hypothalamus, amygdala and piriform cortex. Histological verification of cell loss in hippocampal pyramidal cell layers (CA1, CA2, CA3 and hilus) was performed on Nissl-stained sections (using Cresyl Echt Violet) blinded for the treatment group.

T2 sequence (P16257 whole entry): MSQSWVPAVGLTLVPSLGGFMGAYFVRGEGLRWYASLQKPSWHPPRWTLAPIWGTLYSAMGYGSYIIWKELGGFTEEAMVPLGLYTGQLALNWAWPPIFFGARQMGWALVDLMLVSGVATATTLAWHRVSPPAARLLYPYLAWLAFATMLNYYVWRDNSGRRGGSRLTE
T1 sequence (P16257 whole entry): as above

## CCN(CC)C(=O)Cc1c(-c2ccc(OCCC[18F])cc2)nc2ccc(Cl)cn12 [[^18F]-PBR111]
[1]; Amygdala, Left
  Increase (%) of Vt, KASE vs control: 288%
[1]; Amygdala, Left, Control (N = 4)
  Tissue distribution volume (Vt): 5.3 ± 0.8
[1]; Amygdala, Left, KASE (N = 4), 7 days post-SE
  Tissue distribution volume (Vt): 20.6 ± 2.8
[1]; Amygdala, Right
  Increase (%) of Vt, KASE vs control: 284%
[1]; Amygdala, Right, Control (N = 4)
  Tissue distribution volume (Vt): 6.1 ± 0.7
[1]; Amygdala, Right, KASE (N = 4), 7 days post-SE
  Tissue distribution volume (Vt): 23.4 ± 4.8
[1]; Brainstem
  Increase (%) of Vt, KASE vs control: 41%
[1]; Brainstem, Control (N = 4)
  Tissue distribution volume (Vt): 4.7 ± 0.8
[1]; Brainstem, KASE (N = 4), 7 days post-SE
  Tissue distribution volume (Vt): 6.7 ± 1.0
[1]; Cerebellum
  Increase (%) of Vt, KASE vs control: 43%
[1]; Cerebellum, Control (N = 4)
  Tissue distribution volume (Vt): 7.5 ± 0.8
[1]; Cerebellum, KASE (N = 4), 7 days post-SE
  Tissue distribution volume (Vt): 10.6 ± 1.3
[1]; Colliculi, Left
  Increase (%) of Vt, KASE vs control: 44%
[1]; Colliculi, Left, Control (N = 4)
  Tissue distribution volume (Vt): 4.0 ± 1.0
[1]; Colliculi, Left, KASE (N = 4), 7 days post-SE
  Tissue distribution volume (Vt): 5.8 ± 1.1
[1]; Colliculi, Right
  Increase (%) of Vt, KASE vs control: 70%
[1]; Colliculi, Right, Control (N = 4)
  Tissue distribution volume (Vt): 4.1 ± 1.1
[1]; Colliculi, Right, KASE (N = 4), 7 days post-SE
  Tissue distribution volume (Vt): 6.9 ± 1.8
[1]; Frontal cortex, Left
  Increase (%) of Vt, KASE vs control: 108%
[1]; Frontal cortex, Left, Control (N = 4)
  Tissue distribution volume (Vt): 5.4 ± 1.0
[1]; Frontal cortex, Left, KASE (N = 4), 7 days post-SE
  Tissue distribution volume (Vt): 11.3 ± 2.4
[1]; Frontal cortex, Right
  Increase (%) of Vt, KASE vs control: 98%
[1]; Frontal cortex, Right, Control (N = 4)
  Tissue distribution volume (Vt): 5.7 ± 1.2
[1]; Frontal cortex, Right, KASE (N = 4), 7 days post-SE
  Tissue distribution volume (Vt): 11.2 ± 2.4
[1]; Hippocampus, Left
  Increase (%) of Vt, KASE vs control: 154%
[1]; Hippocampus, Left, Control (N = 4)
  Tissue distribution volume (Vt): 3.6 ± 0.5
[1]; Hippocampus, Left, KASE (N = 4), 7 days post-SE
  Tissue distribution volume (Vt): 9.1 ± 1.1
[1]; Hippocampus, Right
  Increase (%) of Vt, KASE vs control: 159%
[1]; Hippocampus, Right, Control (N = 4)
  Tissue distribution volume (Vt): 3.6 ± 0.4
[1]; Hippocampus, Right, KASE (N = 4), 7 days post-SE
  Tissue distribution volume (Vt): 9.4 ± 1.6
[1]; Hypothalamus
  Increase (%) of Vt, KASE vs control: 104%
[1]; Hypothalamus, Control (N = 4)
  Tissue distribution volume (Vt): 4.0 ± 0.7
[1]; Hypothalamus, KASE (N = 4), 7 days post-SE
  Tissue distribution volume (Vt): 8.2 ± 1.4
[1]; Occipital cortex, Left
  Increase (%) of Vt, KASE vs control: 53%
[1]; Occipital cortex, Left, Control (N = 4)
  Tissue distribution volume (Vt): 9.8 ± 3.4
[1]; Occipital cortex, Left, KASE (N = 4), 7 days post-SE
  Tissue distribution volume (Vt): 15.1 ± 3.5
[1]; Occipital cortex, Right
  Increase (%) of Vt, KASE vs control: 62%
[1]; Occipital cortex, Right, Control (N = 4)
  Tissue distribution volume (Vt): 9.3 ± 1.4
[1]; Occipital cortex, Right, KASE (N = 4), 7 days post-SE
  Tissue distribution volume (Vt): 15.0 ± 1.4
[1]; Parietal cortex, Left
  Increase (%) of Vt, KASE vs control: 110%
[1]; Parietal cortex, Left, Control (N = 4)
  Tissue distribution volume (Vt): 4.5 ± 0.6
[1]; Parietal cortex, Left, KASE (N = 4), 7 days post-SE
  Tissue distribution volume (Vt): 9.5 ± 1.1
[1]; Parietal cortex, Right
  Increase (%) of Vt, KASE vs control: 136%
[1]; Parietal cortex, Right, Control (N = 4)
  Tissue distribution volume (Vt): 4.9 ± 0.8
[1]; Parietal cortex, Right, KASE (N = 4), 7 days post-SE
  Tissue distribution volume (Vt): 11.6 ± 2.0
[1]; Pons
  Increase (%) of Vt, KASE vs control: 78%
[1]; Pons, Control (N = 4)
  Tissue distribution volume (Vt): 4.2 ± 0.9
[1]; Pons, KASE (N = 4), 7 days post-SE
  Tissue distribution volume (Vt): 7.5 ± 1.8
[1]; Striatum, Left
  Increase (%) of Vt, KASE vs control: 180%
[1]; Striatum, Left, Control (N = 4)
  Tissue distribution volume (Vt): 2.8 ± 0.6
[1]; Striatum, Left, KASE (N = 4), 7 days post-SE
  Tissue distribution volume (Vt): 8.0 ± 1.2
[1]; Striatum, Right
  Increase (%) of Vt, KASE vs control: 156%
[1]; Striatum, Right, Control (N = 4)
  Tissue distribution volume (Vt): 3.0 ± 0.5
[1]; Striatum, Right, KASE (N = 4), 7 days post-SE
  Tissue distribution volume (Vt): 7.8 ± 1.1
[1]; Thalamus, Left
  Increase (%) of Vt, KASE vs control: 173%
[1]; Thalamus, Left, Control (N = 4)
  Tissue distribution volume (Vt): 2.6 ± 0.5
[1]; Thalamus, Left, KASE (N = 4), 7 days post-SE
  Tissue distribution volume (Vt): 7.0 ± 1.8
[1]; Thalamus, Right
  Increase (%) of Vt, KASE vs control: 155%
[1]; Thalamus, Right, Control (N = 4)
  Tissue distribution volume (Vt): 2.8 ± 0.5
[1]; Thalamus, Right, KASE (N = 4), 7 days post-SE
  Tissue distribution volume (Vt): 7.1 ± 1.4
[2]; control animals
  Percentage of parent compound in plasma: 20.8 ± 1.3%
[2]; severe SE animals
  Percentage of parent compound in plasma: 20.1 ± 1.3%
[3]
  Stability in whole rat blood: not further metabolised in vitro in whole rat blood

## CCN(CC)C(=O)Cc1c(-c2ccc(I)cc2)nc2ccc(Cl)cn12 [[^125I]-CLINDE]
TSPO; Hippocampus (CA1)
  % increase of specific binding, KASE vs control: 613%
TSPO; Hippocampus (CA2)
  % increase of specific binding, KASE vs control: 491%
TSPO; Hippocampus (CA3)/hilus
  % increase of specific binding, KASE vs control: 860%
TSPO; Hippocampus (whole, dorsal)
  % increase of specific binding, KASE vs control: 226%
